Data taken from patent US8344028B2, “Gamma-amino-butyric acid derivatives as GABAB receptor ligands” (XenoPort, Inc., priority 2009, dated 2013).

Experiments:
[1] = target: T1, recombinant human GABABR1a2 (Homo sapiens, UniProt Q9UBS5); assay: Ca2+ assay for determining GABAB receptor agonist activity; type: cell-based; settings: cells expressing recombinant human GABABR1a2
T1 construct: expressed in transfected cells; host or cells: HEK cells

GABAB receptor = target: T2, GABAB receptor (Rattus norvegicus, UniProt Q9Z0U4); assay: [3H]CGP54626 rat brain GABAB receptor binding assay; settings: [3H]CGP54626 rat brain binding assay
T2 construct: from tissue; host or cells: rat cerebral cortex membranes
T2 sequence (Q9Z0U4 20-960): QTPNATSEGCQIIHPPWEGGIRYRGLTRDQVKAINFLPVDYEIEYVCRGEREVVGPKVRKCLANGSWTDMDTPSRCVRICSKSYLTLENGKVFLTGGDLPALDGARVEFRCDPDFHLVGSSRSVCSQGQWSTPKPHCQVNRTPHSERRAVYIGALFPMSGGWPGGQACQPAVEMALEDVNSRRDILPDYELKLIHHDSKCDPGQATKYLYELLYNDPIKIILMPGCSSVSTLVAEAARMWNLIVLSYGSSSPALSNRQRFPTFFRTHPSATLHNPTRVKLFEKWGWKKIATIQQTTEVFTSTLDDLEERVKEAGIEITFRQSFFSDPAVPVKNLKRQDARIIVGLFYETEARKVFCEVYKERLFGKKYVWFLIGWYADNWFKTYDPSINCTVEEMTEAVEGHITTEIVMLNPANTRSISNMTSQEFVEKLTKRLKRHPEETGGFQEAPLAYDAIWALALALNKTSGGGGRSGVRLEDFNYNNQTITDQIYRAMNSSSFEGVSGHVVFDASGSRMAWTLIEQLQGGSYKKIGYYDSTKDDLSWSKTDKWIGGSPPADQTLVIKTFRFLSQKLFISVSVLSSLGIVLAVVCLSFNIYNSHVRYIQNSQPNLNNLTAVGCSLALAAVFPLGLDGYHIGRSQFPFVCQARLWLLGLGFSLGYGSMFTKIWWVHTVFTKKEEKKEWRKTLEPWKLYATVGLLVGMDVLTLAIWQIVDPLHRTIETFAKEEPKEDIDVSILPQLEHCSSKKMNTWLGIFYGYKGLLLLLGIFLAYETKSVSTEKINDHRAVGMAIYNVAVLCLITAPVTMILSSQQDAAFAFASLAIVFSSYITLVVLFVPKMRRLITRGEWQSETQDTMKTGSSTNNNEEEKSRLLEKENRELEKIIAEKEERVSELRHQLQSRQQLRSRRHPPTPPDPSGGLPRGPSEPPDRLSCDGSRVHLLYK
T2 sequence (O88871 41-940 partner): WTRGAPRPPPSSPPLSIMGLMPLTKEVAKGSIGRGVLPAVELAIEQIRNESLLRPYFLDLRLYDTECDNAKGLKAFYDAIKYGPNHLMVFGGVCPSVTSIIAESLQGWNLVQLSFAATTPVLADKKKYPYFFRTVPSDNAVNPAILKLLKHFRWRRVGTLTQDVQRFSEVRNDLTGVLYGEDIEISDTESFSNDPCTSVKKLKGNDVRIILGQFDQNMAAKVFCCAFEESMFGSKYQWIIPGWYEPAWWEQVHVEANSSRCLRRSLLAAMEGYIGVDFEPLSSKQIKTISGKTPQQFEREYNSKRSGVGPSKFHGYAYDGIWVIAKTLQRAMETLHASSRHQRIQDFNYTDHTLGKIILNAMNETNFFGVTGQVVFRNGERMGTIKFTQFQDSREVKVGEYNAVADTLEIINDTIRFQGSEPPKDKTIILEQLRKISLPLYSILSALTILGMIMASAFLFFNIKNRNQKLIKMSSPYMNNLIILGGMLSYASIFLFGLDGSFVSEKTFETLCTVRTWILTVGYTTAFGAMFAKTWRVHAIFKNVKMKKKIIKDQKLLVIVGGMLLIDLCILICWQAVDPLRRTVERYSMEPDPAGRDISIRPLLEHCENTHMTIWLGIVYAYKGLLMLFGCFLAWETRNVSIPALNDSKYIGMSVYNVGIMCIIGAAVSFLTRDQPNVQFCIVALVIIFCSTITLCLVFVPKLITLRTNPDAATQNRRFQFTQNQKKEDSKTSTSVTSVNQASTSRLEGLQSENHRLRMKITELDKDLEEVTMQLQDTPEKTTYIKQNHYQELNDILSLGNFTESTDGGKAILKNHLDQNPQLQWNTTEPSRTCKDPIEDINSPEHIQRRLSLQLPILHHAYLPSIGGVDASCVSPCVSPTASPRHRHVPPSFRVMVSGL

[2] = Bioavailability following oral administration to rats; settings: rat, in vivo
Experimental: Rats were obtained commercially and were pre-cannulated in the jugular vein. Animals were conscious at the time of the experiment. All animals were fasted overnight and until 4 hours post-dosing of a compound.
Rat blood samples (0.3 mL/sample) were collected from all animals prior to dosing and at different time-points up to 24 h post-dose into tubes containing EDTA. Two aliquots (100 μL each) were quenched with 300 μL methanol and stored at −20° C. prior to analysis.
To prepare analysis standards, 90 μL of rat blood was quenched with 300 μL methanol followed by 10 μL of spiking standard and/or 20 μL of internal standard. The sample tubes were vortexed for at least 2 min and then centrifuged at 3400 rpm for 20 min. The supernatant was then transferred to an injection vial or plate for analysis by LC-MS-MS.
To prepare samples for analysis, 20 μL of internal standard was added to each quenched sample tube. The sample tubes were vortexed for at least 2 min and then centrifuged at 3400 rpm for 20 min. The supernatant was then transferred to an injection vial or plate for analysis by LC-MS-MS.
LC/MS/MS analysis was performed using an API 2000 or API 4000 mass spectrometer equipped with a Shimadzu and or Agilent HPLC system are used for determination concentration of compounds in rat blood. A Varian Polaris C18, 3μ 50×4.6 mm column was used. 0.1% Formic acid in water and acetonitrile were applied as the mobile phase. Runs were 4.0 min. […] L-4-Chlorophenylalanine was used as an internal standard at m/z 200.00/154.00.
Non-compartmental analysis was performed using WinNonlin software (v.3.1 Professional Version, Pharsight Corporation, Mountain View, Calif.) on individual animal profiles. […]
The oral bioavailability (F %) of a compound was determined by comparing the area under the compound concentration vs time curve (AUC) following oral administration of a prodrug of a GABAB ligand with the AUC of the compound concentration vs time curve following intravenous administration of the GABAB ligand on a dose normalized basis.

T1 sequence (Q9UBS5 15-961 limits assumed): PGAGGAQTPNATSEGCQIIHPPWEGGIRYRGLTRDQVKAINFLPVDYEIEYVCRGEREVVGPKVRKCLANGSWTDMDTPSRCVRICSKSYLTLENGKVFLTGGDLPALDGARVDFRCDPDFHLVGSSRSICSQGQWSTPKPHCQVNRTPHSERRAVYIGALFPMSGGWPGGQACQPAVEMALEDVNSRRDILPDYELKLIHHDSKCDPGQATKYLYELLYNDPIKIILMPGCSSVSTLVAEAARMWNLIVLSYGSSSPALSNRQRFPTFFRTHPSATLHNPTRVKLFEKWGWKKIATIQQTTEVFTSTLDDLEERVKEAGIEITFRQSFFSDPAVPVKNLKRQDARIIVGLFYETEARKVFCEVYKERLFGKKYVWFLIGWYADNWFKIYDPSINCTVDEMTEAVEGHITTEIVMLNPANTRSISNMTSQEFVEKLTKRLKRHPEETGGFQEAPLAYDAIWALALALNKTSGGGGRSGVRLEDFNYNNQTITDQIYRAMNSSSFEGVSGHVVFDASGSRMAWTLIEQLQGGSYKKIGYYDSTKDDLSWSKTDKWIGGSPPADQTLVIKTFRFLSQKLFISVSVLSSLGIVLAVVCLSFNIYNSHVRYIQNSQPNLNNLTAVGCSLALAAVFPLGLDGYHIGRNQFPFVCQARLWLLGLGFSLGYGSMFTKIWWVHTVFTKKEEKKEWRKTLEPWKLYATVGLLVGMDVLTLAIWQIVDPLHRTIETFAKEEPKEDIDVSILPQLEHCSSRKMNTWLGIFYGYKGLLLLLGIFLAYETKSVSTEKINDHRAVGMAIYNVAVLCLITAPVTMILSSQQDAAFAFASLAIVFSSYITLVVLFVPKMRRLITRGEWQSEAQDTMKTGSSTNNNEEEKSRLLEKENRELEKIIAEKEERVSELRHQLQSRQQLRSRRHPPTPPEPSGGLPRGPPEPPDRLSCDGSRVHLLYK
T1 sequence (O75899 42-941 partner): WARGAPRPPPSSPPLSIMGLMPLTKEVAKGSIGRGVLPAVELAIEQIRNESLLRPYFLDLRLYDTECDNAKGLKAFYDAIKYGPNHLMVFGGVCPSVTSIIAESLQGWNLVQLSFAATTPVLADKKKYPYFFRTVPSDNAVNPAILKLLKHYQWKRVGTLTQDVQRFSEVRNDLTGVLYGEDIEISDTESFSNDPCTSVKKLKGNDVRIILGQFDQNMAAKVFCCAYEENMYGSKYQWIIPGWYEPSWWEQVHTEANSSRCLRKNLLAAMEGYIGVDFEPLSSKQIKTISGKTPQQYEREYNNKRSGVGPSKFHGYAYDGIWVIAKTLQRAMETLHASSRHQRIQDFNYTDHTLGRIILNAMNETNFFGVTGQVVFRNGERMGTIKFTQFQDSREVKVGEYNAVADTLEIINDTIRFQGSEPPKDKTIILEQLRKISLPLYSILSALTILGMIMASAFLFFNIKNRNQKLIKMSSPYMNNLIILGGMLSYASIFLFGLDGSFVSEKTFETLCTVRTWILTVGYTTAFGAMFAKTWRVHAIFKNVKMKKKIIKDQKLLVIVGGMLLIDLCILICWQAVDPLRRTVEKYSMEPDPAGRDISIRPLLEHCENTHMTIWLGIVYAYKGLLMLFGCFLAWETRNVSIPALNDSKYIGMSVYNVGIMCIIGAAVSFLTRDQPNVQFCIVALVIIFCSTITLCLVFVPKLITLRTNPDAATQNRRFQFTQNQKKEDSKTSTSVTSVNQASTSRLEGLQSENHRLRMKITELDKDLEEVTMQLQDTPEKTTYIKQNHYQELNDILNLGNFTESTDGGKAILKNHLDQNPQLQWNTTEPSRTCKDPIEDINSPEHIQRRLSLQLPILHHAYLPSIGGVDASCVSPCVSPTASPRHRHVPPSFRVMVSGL

Q: For `Cl.NC[C@H](CC(=O)O)c1ccc(Cl)c(OCc2ccncc2)c1` [Example 68, (3R)-4-Amino-3-[4-chloro-3-(4-pyridylmethoxy)phenyl]butanoic acid hydrochloride], which EC50 [1] is on record?
A: Its EC50 is less than 0.7 µM.

Q: What about the IC50 (GABAB receptor) of the same molecule?
A: The IC50 was less than 25 µM.

Q: And the “oral bioavailability (F %)” value [2]?
A: The value was “greater than 10%”.
